The assay relates to C. albicans. The experiment in a line: In vitro antifungal susceptibility testing (MIC), soyabean casein digest broth. The following applies: Candida albicans, reference standard, end points after 48 hours, read-out: minimum inhibitory concentration. It counts as cell-based. The protocol:
In vitro evaluation of antifungal activity can be performed by determining the minimum inhibitory concentration.
Anti-fungal susceptibility testing of these anti-fungal compounds was done by conventional method using soyabean casein digest broth. Known anti-fungal agents like Fluconazole and amphotericin-B were used as positive Control. End points were determined after 48 hours visually and by using Spectrophotometer wherever necessary. Different dilutions were tried and the set of experiments where repeated to confirm the end points. Standard cultures of Candida, Aspergillus and Fusarium were used for screening of these drugs.
Substituents and In-Vitro Anti-Fungal Activity (C. albicans) of the Compounds Expressed as MIC* (μg/ml). Reference Standard (RS) Fluconazole.

With `OC(Cn1cncn1)(Cn1cncn1)c1ccc(F)cc1F` [Fluconazole], the MIC is under 3.12 µg/mL.
